Results: patent US6441006B2, “Pharmaceutical compositions and methods for use” (Targacept, Inc., priority 1998, dated 2002)

Key:
[1] = target: T1, muscle-type nicotinic acetylcholine receptors (Homo sapiens, UniProt P02708+P07510+Q07001); test: Interaction with muscle receptors; format: cell-based; conditions: relative to (S)-(-)-nicotine
T1 construct: endogenous in cells; host or cells: TE671/RD (own knowledge of the cited US 5,597,919)
Description: (§1) The determination of the interaction of the compounds with muscle receptors was carried out in accordance with the techniques described in U.S. Pat. No. 5,597,919 to Dull et al. The maximal activation for individual compounds (Emax) was determined as a percentage of the maximal activation induced by (S)-(−)-nicotine. Reported Emax values represent the amount released relative to (S)-(−)-nicotine on a percentage basis. […] Such preferable compounds have the capability to activate human CNS receptors without activating muscle-type nicotinic acetylcholine receptors. Thus, there is provided a therapeutic window for utilization in the treatment of CNS disorders. […] The compounds begin to cause muscle effects only when employed in amounts of many times those required to activate dopamine release.

[2] = test system: ganglia-type nicotinic acetylcholine receptors; test: Interaction with ganglion receptors; format: cell-based; conditions: relative to (S)-(-)-nicotine
Description: as §1, with “ganglionic” for “muscle”, “ganglia-type” for “muscle-type”, “cause” for “cause muscle”, “effects at ganglia” for “effects”
The determination of the interaction of the compounds with ganglionic receptors was carried out in accordance with the techniques described in U.S. Pat. No. 5,597,919 to Dull et al. The maximal activation for individual compounds (Emax) was determined as a percentage of the maximal activation induced by (S)-(−)-nicotine. Reported Emax values represent the amount released relative to (S)-(−)-nicotine on a percentage basis.

[3] = target: T2, CNS nicotinic receptors (Rattus norvegicus, UniProt P09483+P12390); test: Binding to relevant receptor sites; conditions: calculated from IC50 values using the method of Cheng et al.
T2 construct: Ki
Description: Binding of the compounds to relevant receptor sites was determined in accordance with the techniques described in U.S. Pat. No. 5,597,919 to Dull et al. Inhibition constants (Ki values), reported in nM, were calculated from the IC50 values using the method of Cheng et al., Biochem, Pharmacol. 22:3099 (1973).

[4] = test system: laboratory rats; test: Step-through passive avoidance, scopolamine induced amnesia; format: in vivo, rat; conditions: 0.3 to 3 umol/kg subcutaneous, 0.5 umol/kg scopolamine
Description: A Gemini Avoidance System (San Diego Instruments) were used to evaluate animals in a passive avoidance experiment. During the period of habituation, laboratory rats received a subcutaneous injection of saline. On the acquisition day, each rat received a subcutaneous injection of 0.5 umol/kg scopolamine (or saline in the case of the vehicle control group) 30 minutes prior to being placed in the chambers. Five minutes following scopolamine injection, (or 25 minutes before being placed in the chamber), each rat was administered a subcutaneous injection with one of four doses of the compound. Thirty minutes following the scopolamine or vehicle injection, each rat was placed in the brightly illuminated chamber, facing away from the sliding door. After 10 seconds, the door separating the chambers opened allowing access to the dark chamber. The time to enter the dark chamber was measured. Immediately upon entering the dark chamber, the rat received a mild foot shock (0.5 mAmp) for 2 seconds. Twenty four hours following training, each rat was placed in the light chamber facing away from the sliding door. […] Statistical differences in latencies (latency during acquisition and retention trials) were analyzed by Kruskal-Wallis one-way analysis of variance on ranks followed by the either of two-tailed Mann-Whitney U-test or Newman-Keuls analog test if values of p less than 0.05 were obtained. […]

[5] = target: T3, CNS nicotinic receptors; test: Rubidium release; format: biochemical
T3 construct: Emax, rubidium release; other: relative to 300 uM tetramethylammonium ion
Description: Rubidium release was measured using the techniques described in Bencherif et al., JPET, 279: 1413-1421 (1996). Reported EC50 values are expressed in nM, and Emax values represent the amount of rubidium ion released relative to 300 uM tetranmethylammonium ion, on a percentage basis.

[6] = test system: dopamine release; test: Dopamine release; format: biochemical
Description: Dopamine release was measured using the techniques described in U.S. Pat. No. 5,597,919 to Dull et al. Release is expressed as a percentage of release obtained with a concentration of (S)-(−)-nicotine resulting in maximal effects. Reported EC50 values are expressed in nM, and Emax values represent the amount released relative to (S)-(−)-nicotine on a percentage basis.

T1 sequence (P02708 21-457): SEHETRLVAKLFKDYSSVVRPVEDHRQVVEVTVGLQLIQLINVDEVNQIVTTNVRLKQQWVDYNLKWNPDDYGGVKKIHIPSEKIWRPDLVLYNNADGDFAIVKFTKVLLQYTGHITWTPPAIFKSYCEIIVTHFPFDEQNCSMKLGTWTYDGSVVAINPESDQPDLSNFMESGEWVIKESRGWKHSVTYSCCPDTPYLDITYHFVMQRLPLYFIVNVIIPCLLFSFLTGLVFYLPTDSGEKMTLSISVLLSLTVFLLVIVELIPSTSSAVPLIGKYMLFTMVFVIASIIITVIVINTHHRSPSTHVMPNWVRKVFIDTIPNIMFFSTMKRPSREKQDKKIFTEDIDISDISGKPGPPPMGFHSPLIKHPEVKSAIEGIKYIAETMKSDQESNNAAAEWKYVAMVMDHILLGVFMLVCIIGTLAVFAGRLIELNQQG
T1 sequence (P11230 24-501 partner): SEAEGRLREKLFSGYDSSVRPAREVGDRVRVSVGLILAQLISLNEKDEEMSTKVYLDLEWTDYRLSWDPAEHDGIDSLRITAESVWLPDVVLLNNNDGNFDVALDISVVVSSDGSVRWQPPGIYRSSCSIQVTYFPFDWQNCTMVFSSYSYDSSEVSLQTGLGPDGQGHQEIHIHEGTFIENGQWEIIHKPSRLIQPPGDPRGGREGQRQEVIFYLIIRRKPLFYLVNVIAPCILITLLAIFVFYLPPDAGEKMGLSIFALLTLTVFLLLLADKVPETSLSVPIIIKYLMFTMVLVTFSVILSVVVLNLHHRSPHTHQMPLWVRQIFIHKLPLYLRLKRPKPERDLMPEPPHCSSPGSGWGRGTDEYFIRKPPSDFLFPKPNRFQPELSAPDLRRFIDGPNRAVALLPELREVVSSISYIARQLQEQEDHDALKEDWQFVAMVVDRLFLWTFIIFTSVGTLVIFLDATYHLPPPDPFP
T1 sequence (Q07001 22-517): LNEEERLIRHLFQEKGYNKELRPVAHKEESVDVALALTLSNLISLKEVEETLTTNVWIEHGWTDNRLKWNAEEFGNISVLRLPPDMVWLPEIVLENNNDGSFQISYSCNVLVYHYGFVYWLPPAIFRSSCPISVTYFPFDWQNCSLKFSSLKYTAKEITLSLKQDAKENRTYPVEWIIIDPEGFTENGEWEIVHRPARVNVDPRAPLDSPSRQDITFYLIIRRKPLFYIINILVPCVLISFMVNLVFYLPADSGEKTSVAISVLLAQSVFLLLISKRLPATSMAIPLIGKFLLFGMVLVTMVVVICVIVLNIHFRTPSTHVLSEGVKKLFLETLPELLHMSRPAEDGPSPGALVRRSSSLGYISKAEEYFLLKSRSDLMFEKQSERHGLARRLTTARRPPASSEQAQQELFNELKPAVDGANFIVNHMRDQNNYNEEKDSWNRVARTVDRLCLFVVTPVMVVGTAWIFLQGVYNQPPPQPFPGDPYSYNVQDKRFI
T1 sequence (P07510 23-517): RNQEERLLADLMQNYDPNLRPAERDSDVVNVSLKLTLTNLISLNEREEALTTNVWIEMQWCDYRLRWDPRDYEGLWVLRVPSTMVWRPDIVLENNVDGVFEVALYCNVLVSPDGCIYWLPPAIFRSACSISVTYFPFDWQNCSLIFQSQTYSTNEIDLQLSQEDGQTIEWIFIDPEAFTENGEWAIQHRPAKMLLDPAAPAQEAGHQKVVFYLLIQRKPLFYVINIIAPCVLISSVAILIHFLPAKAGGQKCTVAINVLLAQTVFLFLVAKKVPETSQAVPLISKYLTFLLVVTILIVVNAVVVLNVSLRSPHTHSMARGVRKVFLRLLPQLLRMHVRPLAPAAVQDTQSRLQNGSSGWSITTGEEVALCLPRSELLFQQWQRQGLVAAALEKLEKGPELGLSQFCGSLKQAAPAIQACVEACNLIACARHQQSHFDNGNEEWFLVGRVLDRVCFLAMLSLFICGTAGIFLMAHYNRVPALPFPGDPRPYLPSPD
T2 sequence (P09483 31-630): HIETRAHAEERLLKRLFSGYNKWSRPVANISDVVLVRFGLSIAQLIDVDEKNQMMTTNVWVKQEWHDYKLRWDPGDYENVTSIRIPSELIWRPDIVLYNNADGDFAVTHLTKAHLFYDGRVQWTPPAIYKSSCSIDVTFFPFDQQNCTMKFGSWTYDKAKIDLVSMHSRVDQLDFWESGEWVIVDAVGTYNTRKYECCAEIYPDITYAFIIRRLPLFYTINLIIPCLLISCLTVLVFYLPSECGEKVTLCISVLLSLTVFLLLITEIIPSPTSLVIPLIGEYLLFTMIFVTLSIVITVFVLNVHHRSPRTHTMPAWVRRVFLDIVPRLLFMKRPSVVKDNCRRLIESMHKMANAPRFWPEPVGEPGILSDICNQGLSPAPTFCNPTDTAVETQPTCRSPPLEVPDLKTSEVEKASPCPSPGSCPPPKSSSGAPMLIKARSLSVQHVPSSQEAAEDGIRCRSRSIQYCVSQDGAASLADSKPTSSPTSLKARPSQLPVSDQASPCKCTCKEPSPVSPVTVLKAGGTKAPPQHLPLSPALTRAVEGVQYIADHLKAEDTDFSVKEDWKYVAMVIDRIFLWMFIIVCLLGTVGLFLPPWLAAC
T2 sequence (P12390 25-500): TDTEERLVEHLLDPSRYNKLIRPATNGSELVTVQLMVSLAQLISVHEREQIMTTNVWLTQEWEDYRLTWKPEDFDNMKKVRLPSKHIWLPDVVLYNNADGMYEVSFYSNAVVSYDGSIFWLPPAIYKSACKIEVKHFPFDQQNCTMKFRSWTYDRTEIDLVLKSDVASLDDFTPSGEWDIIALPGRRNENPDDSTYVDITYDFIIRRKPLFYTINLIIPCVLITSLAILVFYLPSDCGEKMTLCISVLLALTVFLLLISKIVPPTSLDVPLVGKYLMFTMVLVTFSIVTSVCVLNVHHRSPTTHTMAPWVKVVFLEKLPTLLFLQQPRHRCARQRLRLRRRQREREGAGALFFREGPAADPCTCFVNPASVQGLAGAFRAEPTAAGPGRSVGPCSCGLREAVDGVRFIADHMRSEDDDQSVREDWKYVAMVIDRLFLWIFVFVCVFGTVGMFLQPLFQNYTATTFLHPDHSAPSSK

Substance: (3-(3-Pyridyloxy)propyl)methylamine Hemigalactarate [Example 5]
- Emax at muscle-type receptors [1]: 0%
- Emax at ganglionic-type receptors [2]: 93%
- Ki [3]: 13 nM
- reversal of scopolamine induced amnesia [4]: significant reversal of scopolamine induced amnesia
- EC50 [5]: 960 nM
- Emax, rubidium release ([5]; relative to 300 uM tetramethylammonium ion): 83%
- EC50 [6]: 369 nM
- Emax, dopamine release ([6]; amount released relative to (S)-(-)-nicotine): 96%
